For one series, the target named is T1, NLRP3 inflammasome (Homo sapiens, UniProt Q96P20).
T1 construct: The THP-1 cells were differentiated into macrophages by treating them with PMA 50 nM; endogenous in cells; host or cells: THP-1 (human monocytic leukaemia line), PMA-differentiated, primed with LPS, triggered with ATP
The series can be described thus: NLRP3-dependent pyroptosis (LDH release) in PMA-differentiated THP-1 cells stimulated with LPS/ATP. Format: cell-based. Particulars: compounds at 10 μM for 1 hour; differentiated THP-1, LPS 10 μg/mL 4 hours, ATP 1.5 hours; read-out: Pyroptosis inhibition (% ± SEM). The method, then:
THP-1 cells, a monocytic human cell line derived from the peripheral blood of a patient suffering from acute monocytic leukaemia (www.atcc.org), were cultured in RPMI 1640 medium (Aurogene, Rome, Italy), with the addition of foetal bovine serum (10%, Aurogene), L-glutamine (2 mM, Aurogene), penicillin (100 IU/ml, Aurogene) and streptomycin ([…], Aurogene). The medium was changed every 2-3 days, and the cells were maintained in an incubator at 37° C., with 5% CO2, and with suitable humidity.
The cells were seeded in 48-well plates (90.000 cells/well), and differentiated with phorbol 12-myristate 13-acetate (PMA—50 nM, 24 hours; Sigma-Aldrich). On the next day, the differentiated THP-1s were washed twice with the balanced saline solution phosphate-buffered saline (PBS), and stimulated with lipopolysaccharide (LPS) (10 μg/mL, 4 hours; Sigma-Aldrich), prepared in serum-free medium. After 4 hours the cells were incubated with the compounds at the concentration of 10 μM for 1 hour, operating in triplicate; INF176 and INF177 were tested at three different concentrations: […]. Finally, the cells were stimulated with ATP 5 mm for 1.5 hours. The supernatants were then harvested for the subsequent analyses.
LDH release into the supernatant obtained as described above was quantified using the CytoTox 96 nonradioactive cytotoxicity assay (Promega Corporation, Madison, […], USA), a colorimetric assay wherein LDH activity is measured with an NADH-dependent enzymatic reaction:
Briefly, an equal volume of CytoTox Reagent was added to the supernatant and, after 30 minutes' incubation, the reaction was stopped by adding the stop solution. The formazan concentration was determined by measuring absorbance, using a microplate reader (Victor X4—EnSight, PerkinElmer, Waltham, MA, USA), at λ=490 nm. Cell death was expressed according to the manufacturer's instructions.
The compound INF176 was tested to measure its ability to inhibit NLRP3-dependent cell pyroptosis in human macrophages, using the experimental protocol previously published [Cocco et al. 2017].
The THP-1 cells were differentiated into macrophages by treating them with PMA 50 nM (24 hours) and then with LPS (10 μg/mL) for 4 hours. The cells were treated with the compound (10 μM) for 1 hour. Pyroptosis was induced by treatment with ATP 5 mm. After 90 minutes, cell death was evaluated by measuring the LDH level in the cell supernatant using the CytoTox 96 Non-Radioactive Cytotoxicity Assay (Promega Corporation, Madison, […], USA).

A further series in a line: Cytotoxicity (MTT assay). Format: cell-based, human. As to conditions: human; THP-1 cells, 72 hours' incubation. The method, then:
The THP-1 cells were seeded in a 96-well plate (15.000 cells/well) and incubated with the test compounds at four different concentrations (0.1, 1, 10 and 100 μM), operating in triplicate. The cells were placed in an incubator at 37° C., with 5% CO2, and cell viability was measured after 72 hours' incubation, using the MTT assay. This is a colorimetric assay, based on conversion of water-soluble 3-(4,5-dimethylthiazol-2-yl)-2,5-diphenyltetrazolium bromide (MTT; Sigma-Aldrich) to a violet-coloured insoluble formazan, by the mitochondrial dehydrogenase present in the live cells. The formazan is solubilised in acidified isopropanol, and the concentration is determined by measuring absorbance with a microplate reader (Victor X4—Ensight, PerkinElmer) at λ=570 nm. Viability was expressed as a percentage of the viability of the control cells, which were either untreated or treated with the carrier. The IC50 was calculated with the Graph Pad Prism software.
(In general: Formazan colour is commonly taken as a measure of viable cells.)

Structures are written as SMILES.

T1 sequence (Q96P20 whole entry): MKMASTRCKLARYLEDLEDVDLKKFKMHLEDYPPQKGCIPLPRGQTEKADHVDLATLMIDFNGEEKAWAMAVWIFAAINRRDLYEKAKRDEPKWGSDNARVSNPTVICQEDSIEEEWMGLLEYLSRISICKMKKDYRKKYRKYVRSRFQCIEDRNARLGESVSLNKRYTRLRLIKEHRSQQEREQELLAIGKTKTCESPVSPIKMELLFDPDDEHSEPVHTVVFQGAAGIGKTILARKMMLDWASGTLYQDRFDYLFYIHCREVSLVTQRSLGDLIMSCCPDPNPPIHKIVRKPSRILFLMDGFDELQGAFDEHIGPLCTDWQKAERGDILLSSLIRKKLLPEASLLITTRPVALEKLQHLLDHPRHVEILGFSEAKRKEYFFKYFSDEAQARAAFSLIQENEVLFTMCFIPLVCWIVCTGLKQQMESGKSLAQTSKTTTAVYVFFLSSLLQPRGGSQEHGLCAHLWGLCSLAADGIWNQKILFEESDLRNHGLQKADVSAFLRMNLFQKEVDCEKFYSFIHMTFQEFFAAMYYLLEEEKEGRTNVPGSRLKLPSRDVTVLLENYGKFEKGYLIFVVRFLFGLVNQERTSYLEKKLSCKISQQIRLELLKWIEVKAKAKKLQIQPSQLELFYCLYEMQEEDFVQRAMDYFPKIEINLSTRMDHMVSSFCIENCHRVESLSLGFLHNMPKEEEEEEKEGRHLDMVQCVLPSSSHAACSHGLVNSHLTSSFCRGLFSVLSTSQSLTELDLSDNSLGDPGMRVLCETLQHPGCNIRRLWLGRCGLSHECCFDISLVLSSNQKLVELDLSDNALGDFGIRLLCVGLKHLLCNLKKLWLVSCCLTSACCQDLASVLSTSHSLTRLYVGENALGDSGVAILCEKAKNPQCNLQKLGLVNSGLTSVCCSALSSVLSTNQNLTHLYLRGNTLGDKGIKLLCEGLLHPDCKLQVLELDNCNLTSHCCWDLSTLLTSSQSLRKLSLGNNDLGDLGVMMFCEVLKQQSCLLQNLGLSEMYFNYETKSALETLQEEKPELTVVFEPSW

`CCOC(=O)/C(=C/c1ccccc1Cl)COc1ccccc1` [INF57, (E)-ethyl 3-(2-chlorophenyl)-2-(phenoxymethyl)acrylate]: the inhibition at 10 µM on NLRP3 inflammasome was found to be 34.5 ± 0.3%. Moreover, the IC50 at 72 h in the series “Cytotoxicity (MTT assay)” was > 100 µM.

In the case of `CCOC(=O)[C@H]1CCCN(C(=O)/C(=C/c2ccccc2Cl)CSc2ccccc2)C1` [INF203, ethyl (S,Z)-1-(3-(2-chlorophenyl)-2-((phenylthio)methyl)acryloyl)piperidine-3-carboxylate], the inhibition at 10 µM on NLRP3 inflammasome amounted to 14.4 ± 4.3%.

Turning to `CCOC(=O)[C@H](CN1CCCC1)[C@H](O)c1ccccc1Cl` (stereo in doubt) [INF37 anti], the inhibition at 10 µM on NLRP3 inflammasome stood at 21.1 ± 2.9%.

Consider `CCOC(=O)C1CCN(C(=O)C(CSc2ccccc2)Cc2ccccc2Cl)CC1` (stereo not shown) [INF186, ethyl 1-(2-(2-chlorobenzyl)-3-(phenylthio)propanoyl)piperidine-4-carboxylate], for which the inhibition at 10 µM on NLRP3 inflammasome was < 10%. In “Cytotoxicity (MTT assay)”, this molecule came in with a concentration for half-maximal inhibition (IC50) at 72 h of 94.6 ± 4 µM.

`CCCNC(=O)/C(=C/c1ccccc1Cl)CSc1ccccc1` [INF82, (Z)-3-(2-chlorophenyl)-2-((phenylthio)methyl)-N-propylacrylamide]: the inhibition at 10 µM on NLRP3 inflammasome was 19 ± 4.1%. In “Cytotoxicity (MTT assay)”, this molecule displayed a concentration for half-maximal inhibition (IC50) at 72 h of 63.3 ± 1.3 µM.

Regarding `CCOC(=O)C(CSCC(NC(=O)OC(C)(C)C)C(=O)OC)Cc1ccccc1Cl` (stereo not shown) [INF55, ethyl 3-((2-((tert-butoxycarbonyl)amino)-3-methoxy-3-oxopropyl)thio)-2-(2-chlorobenzyl)propanoate], the inhibition at 10 µM at NLRP3 inflammasome was < 10%. Further, in the series “Cytotoxicity (MTT assay)”, the IC50 at 72 h was > 100 µM.

Regarding `O=C(O)/C(=C/c1ccccc1Cl)CSC1CCCCC1` [INF86, (Z)-3-(2-chlorophenyl)-2-((cyclohexylthio)methyl)acrylic acid], the inhibition at 10 µM on NLRP3 inflammasome is < 10%. Besides, the IC50 at 72 h in “Cytotoxicity (MTT assay)” was > 100 µM.

As for `CCOC(=O)/C(=C/c1ccccc1Cl)CSc1ccccc1` [INF42, ethyl (Z)-3-(2-chlorophenyl)-2-((phenylthio)methyl)acrylate], at NLRP3 inflammasome, the inhibition at 10 µM was 69.1 ± 2.2%. Moreover, in the series “Cytotoxicity (MTT assay)”, the IC50 at 72 h was > 100 µM.

`CCOC(=O)[C@@H](CSc1ccccc1)[C@H](O)c1ccccc1Cl` (mixture of isomers) [INF38s, Ethyl(2S,3S)-3-(2-chlorophenyl)-3-hydroxy-2-(phenylsulphanylmethyl)-propanoate and ethyl(2R,3R)-3-(2-chlorophenyl)-3-hydroxy-2-(phenylsulphanylmethyl)propanoate]: the inhibition at 10 µM at NLRP3 inflammasome turned out to be 23.5 ± 4.2%. Moreover, the IC50 at 72 h in the series “Cytotoxicity (MTT assay)” is > 100 µM.

With `CCOC(=O)/C(=C/c1ccccc1Cl)CSCC(NC(C)=O)C(=O)O` (stereo not shown) [INF85], on NLRP3 inflammasome, the inhibition at 10 µM came to 21.3 ± 4.6%. For the same molecule, in “Cytotoxicity (MTT assay)”, the IC50 at 72 h is > 100 µM.

In the case of `CCOC(=O)C1CCN(C(=O)C(CSC2CCCCC2)Cc2ccccc2Cl)CC1` (stereo not shown) [INF193, ethyl 1-(2-(2-chlorobenzyl)-3-(cyclohexylthio)propanoyl)piperidine-4-carboxylate], the inhibition at 10 µM at NLRP3 inflammasome is < 10%. This molecule also displayed a 50% inhibitory concentration (IC50) at 72 h in the series “Cytotoxicity (MTT assay)” of 77.5 ± 7.3 µM.

Consider `CCOC(=O)[C@@H]1CCCN(C(=O)[C@@H](CSc2ccccc2)Cc2ccccc2Cl)C1` (racemic) [INF185, ethyl 1-(2-(2-chlorobenzyl)-3-(phenylthio)propanoyl)piperidine-3-carboxylate], for which, at NLRP3 inflammasome, the inhibition at 10 µM is < 10%.

Consider `CCOC(=O)C(Cc1ccccc1Cl)CN1CCCC1` (stereo not shown) [INF61, ethyl 2-(2-chlorobenzyl)-3-(pyrrolidine-1-yl)propanoate], for which the inhibition at 10 µM on NLRP3 inflammasome was determined as 41.7 ± 5.2%. Further, in the series “Cytotoxicity (MTT assay)”, the IC50 at 72 h is > 100 µM.

Consider `O=C(O)C1CCN(C(=O)/C(=C/c2ccccc2Cl)CSc2ccccc2)CC1` [INF187, (Z)-1-(3-(2-chlorophenyl)-2-((phenylthio)methyl)acryloyl)piperidine-4-carboxylic acid], for which the inhibition at 10 µM on NLRP3 inflammasome was < 10%. The IC50 at 72 h in the series “Cytotoxicity (MTT assay)” was > 100 µM.

Consider `CCOC(=O)/C(=C/c1ccccc1Cl)C[S+]([O-])c1ccccc1` (stereo not shown) [INF50, (Z)-ethyl 3-(2-chlorophenyl)-2-((phenylsulphinyl)methyl)acrylate], for which the inhibition at 10 µM at NLRP3 inflammasome was 41.1 ± 2.5%. The molecule further showed an IC50 at 72 h in “Cytotoxicity (MTT assay)” of 9.7 ± 0.2 µM.

`CCOC(=O)C(Cc1ccccc1Cl)C[S+]([O-])c1ccccc1` (stereo not shown) [INF48, ethyl 2-(2-chlorobenzyl)-3-(phenylsulphinyl)propanoate]: the inhibition at 10 µM on NLRP3 inflammasome amounted to 33.6 ± 1.2%. Further, the IC50 at 72 h in “Cytotoxicity (MTT assay)” is > 35.1 µM.

As for `CCOC(=O)C(Cc1ccccc1Cl)CS(=O)(=O)c1ccccc1` (stereo not shown) [INF49, ethyl 2-(2-chlorobenzyl)-3-(phenylsulphonyl)-propanoate], the inhibition at 10 µM on NLRP3 inflammasome turned out to be 50.6 ± 5.8%. Further, the half-inhibitory concentration (IC50) at 72 h in “Cytotoxicity (MTT assay)” is > 100 µM.

On to `CCOC(=O)C1CCCN(C(=O)/C(=C/c2cccc(Cl)c2)CSc2ccccc2)C1` (stereo not shown) [INF230, ethyl (Z)-1-(3-(3-chlorophenyl)-2-((phenylthio)methyl)acryloyl)piperidine-3-carboxylate], for which the inhibition at 10 µM at NLRP3 inflammasome turned out to be 39 ± 15.4%.

As for `CCOC(=O)C1CCCN(C(=O)C(CSC2CCCCC2)Cc2ccccc2Cl)C1` (stereo not shown) [INF192, ethyl 1-(2-(2-chlorobenzyl)-3-(cyclohexylthio)propanoyl)piperidine-3-carboxylate], at NLRP3 inflammasome, the inhibition at 10 µM was 62.2 ± 9.78%. In the series “Cytotoxicity (MTT assay)”, this molecule returned an IC50 at 72 h of 59.8 ± 0.7 µM.

Consider `CCOC(=O)C1CCN(C(=O)/C(=C/c2ccccc2Cl)CSC2CCCCC2)CC1` [INF188, ethyl (Z)-1-(3-(2-chlorophenyl)-2-((cyclohexylthio)methyl)acryloyl)piperidine-4-carboxylate], for which, on NLRP3 inflammasome, the inhibition at 10 µM is < 10%. In “Cytotoxicity (MTT assay)”, this molecule had an IC50 at 72 h of 58.6 ± 5.3 µM.

`CCOC(=O)/C(=C/c1ccccc1Cl)CS(=O)(=O)c1ccccc1` [INF51, ethyl (Z)-3-(2-chlorophenyl)-2-((phenylsulphonyl)methyl)acrylate]: the inhibition at 10 µM at NLRP3 inflammasome was determined as 38.9 ± 4.5%. Further, the IC50 at 72 h in the series “Cytotoxicity (MTT assay)” amounted to 20.1 ± 14.3 µM.

Consider `CCOC(=O)C1CCCN(C(=O)/C(=C/c2ccccc2[N+](=O)[O-])CSc2ccccc2)C1` (stereo not shown) [INF231, ethyl (Z)-1-(3-(2-nitrophenyl)-2-((phenylthio)methyl)acryloyl)piperidine-3-carboxylate], for which the inhibition at 10 µM at NLRP3 inflammasome came out at 32.6 ± 19.8%.

In turn, `CCOC(=O)[C@H]1CCCN(C(=O)[C@@H](CSc2ccccc2)Cc2ccccc2Cl)C1` (racemic) [INF184+INF185, ethyl 1-(2-(2-chlorobenzyl)-3-(phenylthio)propanoyl)piperidine-3-carboxylate] yielded a half-maximal inhibitory concentration (IC50) at 72 h in the series “Cytotoxicity (MTT assay)” of 75.4 ± 2.6 µM.

Regarding `CCOC(=O)[C@@H](CS(=O)(=O)c1ccccc1)[C@H](O)c1ccccc1Cl` (stereo in doubt) [INF45, ethyl 3-(2-chlorophenyl)-3-hydroxy-2-((phenylsulphonyl)methyl)propanoate], on NLRP3 inflammasome, the inhibition at 10 µM turned out to be 45.8 ± 6.7%. Further, in “Cytotoxicity (MTT assay)”, the IC50 at 72 h is > 100 µM.

On to `CCOC(=O)[C@@H](CN1CCCC1)[C@H](O)c1ccccc1Cl` (racemic) [INF37 syn], for which the inhibition at 10 µM at NLRP3 inflammasome came out at 32.2 ± 5.7%.

Regarding `NS(=O)(=O)c1ccc(CCNC(=O)/C(=C/c2ccccc2Cl)CSc2ccccc2)cc1` [INF220, (Z)-3-(2-chlorophenyl)-2-((phenylthio)methyl)-N-(4-sulphamoylphenethyl)acrylamide], the inhibition at 10 µM at NLRP3 inflammasome is 73.9 ± 13.9%. In addition, in “Cytotoxicity (MTT assay)”, the IC50 at 72 h is > 62.5 µM.

Turning to `CCOC(=O)[C@@H]1CCCN(C(=O)/C(=C/c2ccccc2Cl)CSc2ccccc2)C1` [INF202, ethyl (R,Z)-1-(3-(2-chlorophenyl)-2-((phenylthio)methyl)acryloyl)piperidine-3-carboxylic acid], on NLRP3 inflammasome, the inhibition at 10 µM turned out to be 40.9 ± 1.2%.

`CCOC(=O)C(CN1CCCC1)C(O)c1ccccc1Cl` (stereo not drawn) [INF37 (syn), ethyl 3-(2-chlorophenyl)-3-hydroxy-2-(pyrrolidin-1-ylmethyl)propanoate]: in the series “Cytotoxicity (MTT assay)”, the 50% inhibitory concentration (IC50) at 72 h is > 100 µM.

In the case of `CCOC(=O)C(CSC1CCCCC1)Cc1ccccc1Cl` (stereo not shown) [INF110, ethyl 2-(2-chlorobenzyl)-3-(cyclohexylthio)propanoate], the inhibition at 10 µM on NLRP3 inflammasome is < 10%. The same molecule returned an IC50 at 72 h in the series “Cytotoxicity (MTT assay)” of 66 ± 1.4 µM.

As a reminder, the inhibition is the change of the read-out against control, counted positive when it falls. As usually defined, the IC50 is the concentration at which inhibition is half-maximal. Read a high IC50 as lower potency.
